Measured values taken from ChEMBL document CHEMBL1201862, “PubChem BioAssay data set” (2004).
Values belong to the compound of their own block, whether it stands above or below them. The source made the active and inactive calls. For most assays here, no stated cut-off is given here; in the data, actives have a measured IC50 and inactives only a lower limit.

How the values were obtained:
[1] = biological target: T1, E3 ubiquitin-protein ligase XIAP (Homo sapiens, UniProt P98170); assay: Counter Screen using XIAP-Bir3 for Chemical Antagonists of Bir1/2 domains of IAP-family anti-apoptotic proteins. [Related pubchem assays (depositor defined):AID1018, AID1449, AID1514, AID1638, AID1749, AID1750, AID488957, AID488963]
T1 sequence (P98170 whole entry): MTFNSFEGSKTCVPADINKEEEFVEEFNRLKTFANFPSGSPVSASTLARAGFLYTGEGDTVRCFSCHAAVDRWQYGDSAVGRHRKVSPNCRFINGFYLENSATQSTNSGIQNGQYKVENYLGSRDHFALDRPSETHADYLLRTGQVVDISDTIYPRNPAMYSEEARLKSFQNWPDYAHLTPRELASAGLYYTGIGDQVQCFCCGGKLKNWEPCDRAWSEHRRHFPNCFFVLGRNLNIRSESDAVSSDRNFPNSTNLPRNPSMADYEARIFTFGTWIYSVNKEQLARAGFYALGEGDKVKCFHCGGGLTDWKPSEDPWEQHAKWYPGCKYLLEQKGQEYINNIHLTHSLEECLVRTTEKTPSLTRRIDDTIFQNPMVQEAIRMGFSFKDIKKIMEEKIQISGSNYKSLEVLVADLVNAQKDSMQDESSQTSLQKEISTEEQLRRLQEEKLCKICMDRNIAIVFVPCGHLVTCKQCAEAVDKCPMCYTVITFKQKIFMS

[2] = biological target: T1, E3 ubiquitin-protein ligase XIAP; assay: small molecules displacing peptide from XIAP – biochemical, IAP family, fluorescence polarization (AID 1018); format: functional
SUMO-activating enzyme [3] = biological target: T2, SUMO-activating enzyme (Homo sapiens, UniProt Q9UBT2); assay: blockers of UBC9-mediated SUMO conjugation – biochemical, AlphaScreen, SUMOylation inhibitor project, confirmation (AID 2018); format: functional
SUMO-activating enzyme [4] = biological target: T2, SUMO-activating enzyme; assay: blockers of SAE1/SAE2–UBC9 SUMO transfer – biochemical, HTRF, uHTS, primary screen (AID 2006); format: protein-complex assay
[5] = Luminescence Cell-Based Dose Retest to Confirm Inhibitors of Cancer Stem Cells. [Related pubchem assays (depositor defined):AID2717, AID2721]; format: functional; conditions: Homo sapiens
[6] = biological target: T3, Voltage-gated N-type calcium channel alpha-1B subunit/Amyloid beta A4 precursor protein-binding family A member 1 (Homo sapiens, UniProt Q00975+Q02410); format: protein assay
T3 sequence (Q00975 whole entry): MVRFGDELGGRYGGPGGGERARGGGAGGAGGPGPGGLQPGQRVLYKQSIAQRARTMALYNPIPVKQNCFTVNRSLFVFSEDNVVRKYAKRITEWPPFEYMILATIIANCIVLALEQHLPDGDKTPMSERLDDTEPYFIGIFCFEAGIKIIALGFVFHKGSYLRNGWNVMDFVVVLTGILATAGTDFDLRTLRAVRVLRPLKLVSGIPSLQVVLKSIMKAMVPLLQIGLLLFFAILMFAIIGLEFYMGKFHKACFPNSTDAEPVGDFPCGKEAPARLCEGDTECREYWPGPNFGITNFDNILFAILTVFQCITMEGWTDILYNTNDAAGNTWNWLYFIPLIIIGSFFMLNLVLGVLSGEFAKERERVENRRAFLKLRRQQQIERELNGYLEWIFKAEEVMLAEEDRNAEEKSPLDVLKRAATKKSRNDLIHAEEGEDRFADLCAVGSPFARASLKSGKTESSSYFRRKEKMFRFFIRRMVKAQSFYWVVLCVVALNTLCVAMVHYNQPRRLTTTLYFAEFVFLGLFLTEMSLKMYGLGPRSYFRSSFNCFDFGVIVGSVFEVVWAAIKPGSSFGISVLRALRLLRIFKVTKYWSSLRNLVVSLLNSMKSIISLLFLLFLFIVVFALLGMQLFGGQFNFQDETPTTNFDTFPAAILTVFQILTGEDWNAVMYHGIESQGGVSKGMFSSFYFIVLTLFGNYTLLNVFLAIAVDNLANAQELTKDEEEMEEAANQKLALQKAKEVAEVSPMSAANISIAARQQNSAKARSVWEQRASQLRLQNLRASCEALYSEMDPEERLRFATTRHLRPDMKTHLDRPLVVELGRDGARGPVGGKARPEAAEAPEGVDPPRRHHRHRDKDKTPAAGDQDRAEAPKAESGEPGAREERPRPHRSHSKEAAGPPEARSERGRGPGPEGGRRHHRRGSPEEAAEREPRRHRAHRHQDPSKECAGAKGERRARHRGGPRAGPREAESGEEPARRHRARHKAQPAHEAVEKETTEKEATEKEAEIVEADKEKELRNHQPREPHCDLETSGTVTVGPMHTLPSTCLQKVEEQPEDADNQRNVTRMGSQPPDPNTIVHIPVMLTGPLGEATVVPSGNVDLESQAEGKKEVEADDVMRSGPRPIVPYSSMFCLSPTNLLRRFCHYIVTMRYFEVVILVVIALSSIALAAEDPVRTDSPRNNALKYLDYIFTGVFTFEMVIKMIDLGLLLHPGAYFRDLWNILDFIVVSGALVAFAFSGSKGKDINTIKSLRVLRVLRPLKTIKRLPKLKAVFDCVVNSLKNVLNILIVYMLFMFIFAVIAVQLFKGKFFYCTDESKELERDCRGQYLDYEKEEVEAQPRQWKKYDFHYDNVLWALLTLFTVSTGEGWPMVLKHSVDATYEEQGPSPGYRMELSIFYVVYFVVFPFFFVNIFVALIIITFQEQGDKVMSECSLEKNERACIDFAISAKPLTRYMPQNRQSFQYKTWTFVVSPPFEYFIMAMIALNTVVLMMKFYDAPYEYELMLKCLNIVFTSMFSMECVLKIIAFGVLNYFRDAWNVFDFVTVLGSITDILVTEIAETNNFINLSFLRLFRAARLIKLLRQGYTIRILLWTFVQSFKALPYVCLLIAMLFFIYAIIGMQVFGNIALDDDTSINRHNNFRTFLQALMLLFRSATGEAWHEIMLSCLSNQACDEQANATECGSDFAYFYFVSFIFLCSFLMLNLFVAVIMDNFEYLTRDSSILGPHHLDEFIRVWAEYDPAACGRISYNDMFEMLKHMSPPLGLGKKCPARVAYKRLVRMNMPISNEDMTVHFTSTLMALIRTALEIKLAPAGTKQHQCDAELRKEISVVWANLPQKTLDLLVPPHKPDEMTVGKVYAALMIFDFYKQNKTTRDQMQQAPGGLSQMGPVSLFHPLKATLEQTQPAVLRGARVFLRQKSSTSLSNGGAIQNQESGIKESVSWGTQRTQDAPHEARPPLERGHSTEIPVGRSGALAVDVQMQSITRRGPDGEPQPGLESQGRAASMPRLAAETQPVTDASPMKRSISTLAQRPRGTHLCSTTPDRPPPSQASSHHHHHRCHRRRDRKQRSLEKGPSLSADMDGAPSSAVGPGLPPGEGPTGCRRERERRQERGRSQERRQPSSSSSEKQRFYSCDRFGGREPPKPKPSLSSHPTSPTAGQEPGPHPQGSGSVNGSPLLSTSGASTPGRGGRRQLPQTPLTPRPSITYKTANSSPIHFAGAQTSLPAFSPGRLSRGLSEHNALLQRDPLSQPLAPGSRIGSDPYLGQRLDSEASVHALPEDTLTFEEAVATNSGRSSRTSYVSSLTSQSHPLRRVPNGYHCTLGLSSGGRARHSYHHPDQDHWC
T3 sequence (Q02410 whole entry): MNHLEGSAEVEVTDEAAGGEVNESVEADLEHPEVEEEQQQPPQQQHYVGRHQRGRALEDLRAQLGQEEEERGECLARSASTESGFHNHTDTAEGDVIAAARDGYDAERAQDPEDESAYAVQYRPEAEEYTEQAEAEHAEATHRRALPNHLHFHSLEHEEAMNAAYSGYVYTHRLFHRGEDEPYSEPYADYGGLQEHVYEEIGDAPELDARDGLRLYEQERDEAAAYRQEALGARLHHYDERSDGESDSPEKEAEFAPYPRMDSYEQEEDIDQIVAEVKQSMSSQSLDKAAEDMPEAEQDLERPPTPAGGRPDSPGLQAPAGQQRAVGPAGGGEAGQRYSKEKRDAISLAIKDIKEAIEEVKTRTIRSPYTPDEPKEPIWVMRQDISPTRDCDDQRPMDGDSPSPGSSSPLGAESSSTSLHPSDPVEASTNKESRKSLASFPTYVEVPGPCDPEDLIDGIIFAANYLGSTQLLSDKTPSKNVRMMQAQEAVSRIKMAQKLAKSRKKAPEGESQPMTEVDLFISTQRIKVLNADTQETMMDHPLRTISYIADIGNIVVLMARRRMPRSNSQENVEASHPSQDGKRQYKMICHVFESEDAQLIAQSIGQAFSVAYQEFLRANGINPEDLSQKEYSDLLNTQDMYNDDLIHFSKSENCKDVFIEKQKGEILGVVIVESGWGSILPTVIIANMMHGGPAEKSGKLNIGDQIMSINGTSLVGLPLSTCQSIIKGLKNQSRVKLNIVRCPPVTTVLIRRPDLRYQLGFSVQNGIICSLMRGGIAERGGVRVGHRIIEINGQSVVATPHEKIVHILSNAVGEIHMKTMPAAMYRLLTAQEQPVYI

[7] = biological target: T3, Voltage-gated N-type calcium channel alpha-1B subunit/Amyloid beta A4 precursor protein-binding family A member 1; format: protein assay; remark: listed apart in the source
[8] = biological target: T4, Alkaline phosphatase, tissue-nonspecific isozyme (Homo sapiens, UniProt P05186); assay: potency against alkaline phosphatase TNAP – biochemical, luminescent, dose response, SAR follow-up (AID 1056)
T4 sequence (P05186 whole entry): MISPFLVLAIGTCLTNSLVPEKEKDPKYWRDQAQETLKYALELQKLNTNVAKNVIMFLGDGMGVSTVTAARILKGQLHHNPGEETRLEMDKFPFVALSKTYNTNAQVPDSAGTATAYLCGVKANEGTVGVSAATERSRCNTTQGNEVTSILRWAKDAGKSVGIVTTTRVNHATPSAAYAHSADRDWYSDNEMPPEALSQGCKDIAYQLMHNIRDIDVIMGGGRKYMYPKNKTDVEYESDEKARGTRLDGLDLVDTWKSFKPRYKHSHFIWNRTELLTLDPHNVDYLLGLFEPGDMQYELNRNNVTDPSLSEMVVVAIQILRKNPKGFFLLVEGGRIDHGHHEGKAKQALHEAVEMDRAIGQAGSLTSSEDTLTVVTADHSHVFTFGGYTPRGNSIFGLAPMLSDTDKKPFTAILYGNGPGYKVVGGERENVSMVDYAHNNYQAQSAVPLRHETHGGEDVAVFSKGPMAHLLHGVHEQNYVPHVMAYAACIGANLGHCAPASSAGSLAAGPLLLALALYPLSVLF

[9] = biological target: Glyceraldehyde-3-phosphate dehydrogenase (Homo sapiens, UniProt P04406)
Glyceraldehyde-3-phosphate dehydrogenase, sequence (P04406 whole entry): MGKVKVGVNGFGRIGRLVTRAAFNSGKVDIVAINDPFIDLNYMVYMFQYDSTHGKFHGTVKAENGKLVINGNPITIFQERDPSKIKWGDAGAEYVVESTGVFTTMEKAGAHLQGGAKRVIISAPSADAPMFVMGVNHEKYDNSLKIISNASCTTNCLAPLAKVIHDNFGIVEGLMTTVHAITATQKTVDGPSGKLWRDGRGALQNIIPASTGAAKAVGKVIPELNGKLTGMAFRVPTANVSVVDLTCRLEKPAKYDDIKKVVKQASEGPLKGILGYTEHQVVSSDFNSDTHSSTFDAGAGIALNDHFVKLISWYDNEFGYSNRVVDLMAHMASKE

Hexokinase = biological target: T5, Hexokinase (Trypanosoma brucei, UniProt Q38C41); assay: Confirmation assay for inhibitors of Trypanosoma brucei hexokinase 1-Analogue-first series. [Related pubchem assays (depositor defined):AID1430, AID1632, AID2516, AID2560, AID2579, AID2600, AID449725, AID492951]; format: functional
T5 sequence (Q38C41 whole entry): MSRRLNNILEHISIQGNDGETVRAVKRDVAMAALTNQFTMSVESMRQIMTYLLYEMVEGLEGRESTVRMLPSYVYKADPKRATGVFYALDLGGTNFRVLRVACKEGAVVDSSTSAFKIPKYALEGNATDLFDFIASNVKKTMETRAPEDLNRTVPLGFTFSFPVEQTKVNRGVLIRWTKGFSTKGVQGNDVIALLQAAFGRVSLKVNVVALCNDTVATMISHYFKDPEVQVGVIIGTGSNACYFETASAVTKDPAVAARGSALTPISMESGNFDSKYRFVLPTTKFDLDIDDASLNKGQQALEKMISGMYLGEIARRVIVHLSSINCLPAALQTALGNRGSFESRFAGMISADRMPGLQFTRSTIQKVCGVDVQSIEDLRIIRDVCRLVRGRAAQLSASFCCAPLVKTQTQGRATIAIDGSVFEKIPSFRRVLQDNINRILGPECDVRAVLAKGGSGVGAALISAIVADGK

[10] = biological target: DNA dC->dU-editing enzyme APOBEC-3G (Homo sapiens, UniProt Q9HC16); assay: Dose Response confirmation of small molecule APOBEC3G DNA Deaminase Inhibitors via a fluorescence-based single-stranded DNA deaminase assay. [Related pubchem assays (depositor defined):AID493012, AID493028]; format: functional
DNA dC->dU-editing enzyme APOBEC-3G, sequence (Q9HC16 whole entry): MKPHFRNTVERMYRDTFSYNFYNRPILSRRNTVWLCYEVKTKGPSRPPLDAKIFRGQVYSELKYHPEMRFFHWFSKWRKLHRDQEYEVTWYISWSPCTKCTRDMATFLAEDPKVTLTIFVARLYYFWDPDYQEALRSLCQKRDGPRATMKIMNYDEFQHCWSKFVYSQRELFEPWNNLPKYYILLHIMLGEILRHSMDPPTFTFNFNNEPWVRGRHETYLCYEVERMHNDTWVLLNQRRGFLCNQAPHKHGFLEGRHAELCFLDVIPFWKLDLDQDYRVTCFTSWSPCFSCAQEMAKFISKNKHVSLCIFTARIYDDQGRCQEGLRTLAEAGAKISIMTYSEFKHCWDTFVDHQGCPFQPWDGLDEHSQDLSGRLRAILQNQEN

[11] = biological target: DNA dC->dU-editing enzyme APOBEC-3A (Homo sapiens, UniProt P31941); assay: A3A deaminase inhibition for selectivity – biochemical, dose response (AID 504722); format: functional
DNA dC->dU-editing enzyme APOBEC-3A, sequence (P31941 whole entry): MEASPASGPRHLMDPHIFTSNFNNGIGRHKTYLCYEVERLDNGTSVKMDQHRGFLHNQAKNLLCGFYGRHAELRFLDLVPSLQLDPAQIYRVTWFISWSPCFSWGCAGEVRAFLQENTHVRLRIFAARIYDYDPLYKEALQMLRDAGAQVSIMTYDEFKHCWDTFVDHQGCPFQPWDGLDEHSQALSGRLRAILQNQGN

[12] = biological target: T6, Rac GTPase-activating protein 1 (Homo sapiens, UniProt Q9H0H5); assay: blockers of MgcRacGAP-driven Rac1 GTP hydrolysis – biochemical, ADP Hunter fluorescence, primary and confirmatory, confirmation (AID 624330); format: functional
T6 sequence (Q9H0H5 whole entry): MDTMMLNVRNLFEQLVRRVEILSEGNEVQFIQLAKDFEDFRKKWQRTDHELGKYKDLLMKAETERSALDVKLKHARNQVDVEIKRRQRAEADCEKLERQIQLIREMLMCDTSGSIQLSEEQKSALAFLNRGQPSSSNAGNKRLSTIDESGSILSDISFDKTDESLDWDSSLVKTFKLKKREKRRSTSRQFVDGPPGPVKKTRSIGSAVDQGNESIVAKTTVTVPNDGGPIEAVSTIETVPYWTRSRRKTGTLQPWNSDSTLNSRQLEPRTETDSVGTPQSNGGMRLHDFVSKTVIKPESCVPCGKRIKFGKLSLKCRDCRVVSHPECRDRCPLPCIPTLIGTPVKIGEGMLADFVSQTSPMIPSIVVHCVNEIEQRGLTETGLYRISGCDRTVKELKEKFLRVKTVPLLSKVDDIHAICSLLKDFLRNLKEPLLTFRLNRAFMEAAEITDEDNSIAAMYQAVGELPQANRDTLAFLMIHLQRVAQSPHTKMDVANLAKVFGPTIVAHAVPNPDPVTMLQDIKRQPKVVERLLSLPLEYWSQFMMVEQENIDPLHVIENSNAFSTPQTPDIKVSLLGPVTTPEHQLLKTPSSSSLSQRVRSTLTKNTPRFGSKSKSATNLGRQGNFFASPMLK

[13] = biological target: T7, Microphthalmia-associated transcription factor (Homo sapiens, UniProt O75030); assay: reducers of TRPM1 reporter luminescence, concentration series – cell-based, SK-MEL-5, cherry-picked, set 3, MITF inhibitor project, dose response (AID 493073); format: functional;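 further: SK-MEL-5 melanoma cells with luciferase driven by the MITF target TRPM1 promoter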
T7 sequence (O75030 whole entry): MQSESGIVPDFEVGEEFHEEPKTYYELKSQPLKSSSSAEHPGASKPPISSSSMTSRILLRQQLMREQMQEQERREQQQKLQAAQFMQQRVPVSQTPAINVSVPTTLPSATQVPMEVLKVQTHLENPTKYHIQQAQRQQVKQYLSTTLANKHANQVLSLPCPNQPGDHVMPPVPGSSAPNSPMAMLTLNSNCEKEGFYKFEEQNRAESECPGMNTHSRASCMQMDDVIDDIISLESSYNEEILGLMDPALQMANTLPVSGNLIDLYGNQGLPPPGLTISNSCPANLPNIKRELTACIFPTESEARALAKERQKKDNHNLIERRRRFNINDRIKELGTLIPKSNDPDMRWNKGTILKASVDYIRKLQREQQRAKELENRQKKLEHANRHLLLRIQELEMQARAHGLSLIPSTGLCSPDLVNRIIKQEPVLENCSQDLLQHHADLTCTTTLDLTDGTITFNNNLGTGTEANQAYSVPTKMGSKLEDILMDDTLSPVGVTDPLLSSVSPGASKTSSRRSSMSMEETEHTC

[14] = biological target: T8, Heat shock factor protein 1 (Mus musculus, UniProt P38532); assay: enhancement of HSF1-driven luciferase signal – cell-based, NIH3T3, luminescence, dose retest, confirmation (AID 435004); format: functional;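 further: stress induced by proteasome inhibitor MG132 added 30 min after compound; luciferase reporter driven by HSF1 response element in NIH3T3 cells; actives raise luminescence as potentiators of the MG132 stress response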
T8 sequence (P38532 whole entry): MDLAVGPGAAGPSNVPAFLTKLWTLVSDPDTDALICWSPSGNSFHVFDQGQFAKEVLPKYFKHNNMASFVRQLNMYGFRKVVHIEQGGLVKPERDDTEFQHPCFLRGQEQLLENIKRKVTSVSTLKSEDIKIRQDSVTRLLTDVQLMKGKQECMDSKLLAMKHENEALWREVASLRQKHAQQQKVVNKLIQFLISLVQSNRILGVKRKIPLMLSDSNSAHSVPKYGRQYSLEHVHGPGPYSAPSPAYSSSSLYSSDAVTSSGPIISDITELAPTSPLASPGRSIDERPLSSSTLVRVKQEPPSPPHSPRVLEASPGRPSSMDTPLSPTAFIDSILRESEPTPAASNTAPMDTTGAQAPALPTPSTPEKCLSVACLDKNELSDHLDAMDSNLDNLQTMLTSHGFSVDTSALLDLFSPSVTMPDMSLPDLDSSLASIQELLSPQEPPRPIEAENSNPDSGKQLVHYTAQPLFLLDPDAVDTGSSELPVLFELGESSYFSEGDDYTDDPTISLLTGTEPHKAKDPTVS

IC50 [1]: > 100 µM (inactive) | IC50 [2]: > 100 µM (not active)
SMILES: C/C(Cn1nnc([N+](=O)[O-])n1)=N\NC(=O)c1ccc(C)cc1

IC50 [6]: 28 µM (active) | IC50 [7]: > 50 µM (inactive)
SMILES: Cc1ccc(N(CC(O)COCc2ccco2)S(=O)(=O)c2ccc(C)cc2)cc1 (stereo unspecified)

IC50 [8]: 0.6 µM (active) | IC50 [9]: > 100 µM (not active)
SMILES: COC(=O)c1cc(-c2ccc3ccccc3c2)[nH]n1

IC50 (SUMO-activating enzyme [3]): 14.3 µM (active)
SMILES: N#Cc1c(=O)c2nc(NCc3ccccc3)ncc2n2ccccc12

IC50 [8]: > 100 µM (inactive) | IC50 [9]: > 100 µM (not active)
SMILES: Cc1ccccc1S(=O)(=O)Nc1nc2ccccc2nc1Cl

IC50 [8]: > 100 µM (inactive) | IC50 [9]: > 100 µM (not active)
SMILES: COc1ccc(OC)c(S(=O)(=O)n2cc(C(N)=O)c3ccccc32)c1

Further lines, the compound ahead of its results:

SMILES: O=C1C(C2=NC(c3ccccn3)C3C(=O)N(c4ccc(Cl)cc4Cl)C(=O)C23)=C(O)c2ccccc21 (stereo unspecified)
IC50 (SUMO-activating enzyme [3]): 34.6 µM (active) | IC50 (SUMO-activating enzyme [4]): 15 µM (active) | AC50 [5]: 13.6 µM (active)

SMILES: CN1CCN(C(=O)Cc2nc3ccccc3[nH]2)CC1
IC50 [1]: > 100 µM (inactive) | IC50 [2]: > 100 µM (not active)

SMILES: c1c(CN2CCCCC2)n[nH]c1C1CCCCC1
IC50 [1]: > 100 µM (inactive) | IC50 [2]: > 100 µM (not active)

SMILES: COc1ccc(CC(=O)Nc2cc(Cl)ccc2C(=O)O)cc1
IC50 (Hexokinase): > 25 µM (inactive)

SMILES: O=C(Nc1nnc(S)s1)c1ccco1
IC50 [10]: 5.51 µM (active) | IC50 [11]: > 100 µM (inactive) | IC50 [12]: 102 µM (active)

SMILES: CCOc1cc(/C=C\[N+](=O)[O-])ccc1OCC(=O)N1CCOCC1
IC50 [6]: 9.89 µM (active) | IC50 [7]: 29.4 µM (active) | AC50 [13]: 7.35 µM (active) | EC50 [14]: 11 µM (active)

SMILES: CCc1ccc(-n2c(=O)c3ccccc3n3c(S)nnc23)cc1.CN(C)C=O
IC50 [10]: 4.9 µM (active) | IC50 [11]: > 100 µM (inactive)

SMILES: CC(C)c1cccc(C(=O)Nc2cc(Cl)ccc2C(=O)O)c1
IC50 (Hexokinase): > 25 µM (inactive)

SMILES: N#Cc1cc2c([nH]c1=S)CCCC2
IC50 [10]: 5.16 µM (active) | IC50 [11]: > 100 µM (inactive)
